One assay has as its target T1, CRTH2 (Homo sapiens, UniProt Q9Y5Y4).
T1 construct: prolactin (prolac) signal peptide (N); expressed in transfected cells; host or cells: 300-19 cells (transformed murine pre-B lymphocytes)
T1 sequence (Q9Y5Y4 1-395): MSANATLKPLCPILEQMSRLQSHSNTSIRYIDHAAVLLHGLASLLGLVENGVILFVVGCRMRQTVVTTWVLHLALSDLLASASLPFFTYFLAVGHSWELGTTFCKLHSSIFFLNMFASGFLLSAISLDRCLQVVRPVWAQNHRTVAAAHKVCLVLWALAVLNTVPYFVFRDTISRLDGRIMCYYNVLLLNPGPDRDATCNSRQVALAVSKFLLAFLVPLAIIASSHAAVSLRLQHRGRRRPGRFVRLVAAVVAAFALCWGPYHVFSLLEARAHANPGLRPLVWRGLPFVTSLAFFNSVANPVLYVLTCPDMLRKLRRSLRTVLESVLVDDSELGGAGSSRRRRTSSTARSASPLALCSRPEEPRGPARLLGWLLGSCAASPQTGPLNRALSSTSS
The assay is described as follows: [3H]-PGD2 binding to 300-19 cells transfected with CRTH2. The protocol:
In a preferred embodiment, a binding assay can be performed as follows: • (a) 300-19 cells (see below) that transiently express CRTH2 are pelleted, and washed twice at room temperature with assay buffer (Hank's balanced saline, including Ca^+2 and Mg^+2, and supplemented with HEPES and sodium bicarbonate). The cells are resuspended at a concentration of 2×10^7 cells/ml. […] After the addition of 50 μl scintillation fluid, the plate is counted in a scintillation counter (1 min per well). […]
To directly determine the binding affinity of CRTH2 for PGD2, the following binding assay was used. […] After the addition of 50 μl scintillation fluid (Packard Microscint 0), the plate was counted in a Packard Topcount scintillation counter (1 min per well). […]
The receptor concentration was calculated to be 79,554 sites/cell.

A further assay addresses T2, DP receptor (Homo sapiens, UniProt Q13258).
T2 sequence (Q13258 1-359): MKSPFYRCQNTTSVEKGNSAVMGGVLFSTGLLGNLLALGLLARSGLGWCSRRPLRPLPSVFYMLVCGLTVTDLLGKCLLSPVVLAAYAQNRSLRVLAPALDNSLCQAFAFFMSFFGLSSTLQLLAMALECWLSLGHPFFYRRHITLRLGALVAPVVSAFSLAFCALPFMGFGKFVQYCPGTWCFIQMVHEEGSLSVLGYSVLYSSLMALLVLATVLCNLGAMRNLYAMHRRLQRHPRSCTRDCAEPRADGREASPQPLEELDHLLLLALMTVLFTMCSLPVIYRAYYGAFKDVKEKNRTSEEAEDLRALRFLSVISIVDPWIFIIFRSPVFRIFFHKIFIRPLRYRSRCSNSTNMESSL
Description: Competition with 3H-PGD2 binding at the DP receptor (Examples 6-9). Conditions: control, cold PGD2, 7 trials. The protocol:
To directly determine the binding affinity of CRTH2 for PGD2, the following binding assay was used. Transfected and parental 300-19 cells were washed twice at room temperature with assay buffer, and resuspended at a concentration of 2×10^7 cells/ml. Using a 96-well U-bottom polypropylene plate (Costar, Corning Inc., Acton, Mass.), the assay was set up as follows: 50 μl of vehicle (0.3% DMSO in assay buffer, total wells) or of […] cold PGD2 (NS wells); 50 μl cells (2×10^7 cells/ml for 10^6 cells per well); 50 μl 6 nM [3H]-PGD2. The plate was allowed to incubate for 20 min at RT before centrifugation (2800 rpm, Sorval RT6000, 5 min, 4° C.). The plate was harvested (Packard Unifilter plate GF/C, previously soaked in 3% PEI for at least 1 hr) with cold assay buffer using a Packard Filtermate Cell Harvester (6×150 μl buffer wash per well). The filterplate was dried overnight. After the addition of 50 μl scintillation fluid (Packard Microscint 0), the plate was counted in a Packard Topcount scintillation counter (1 min per well). […]
In the assay, the capacity of each D-ring compound to compete with binding of ^3H-PGD2 was measured at both the CRTH2 and DP receptors, and an IC50 value (in μM) was determined. […]

Experimental findings from patent publication US6878522B2, “Methods for the identification of compounds useful for the treatment of disease states mediated by prostaglandin D2” (priority 2000, dated 2005) are described below.

As a reminder, the IC50 is the concentration needed to halve the response being measured. A low value points to greater potency. One may read the Kd as the free concentration of one partner at which half of the binding sites on the other are occupied at equilibrium, for simple one-to-one binding. As for `CCCCC[C@H](O)/C=C/[C@H]1C(=O)C[C@H](O)[C@@H]1C/C=C\CCCC(=O)O` [PGD2, prostaglandin D2], the IC50 is 0.018 µM at CRTH2 (300-19 CRTH2 transfectants, 2 nM [3H]-PGD2, room temperature) and 0.0234 µM on DP receptor. The Kd on CRTH2 (CRTH2 transfectant, read-out: Kd of [3H]-PGD2 binding (Scatchard plot)) is 0.0181 µM.
